Laboratory results from US4160829A, “Antibacterial 1,2,4-oxadiazolylacetamido cephalosporins” (Gist-Brocades N.V., priority 1972, dated 1979).
Values after ≈ are worked out from the molar mass of the structure shown. Like-named read-outs stand apart in the source and are kept apart here.

What was measured:
[1] = tested on: Bac.Subt.ATCC 6633; assay: agar serial dilution test; format: cell-based, Bacillus subtilis; settings: Bacillus subtilis, ATCC6633, 24 h, agar serial dilution, 24 hours, 37° C.; read-out: minimal inhibitory concentration (MIC)
[2] = tested on: Staph.aureus A 321; assay: agar serial dilution test; format: cell-based, Staphylococcus aureus; settings: Staphylococcus aureus, A321, 24 h, agar serial dilution, 24 hours, 37° C.; read-out: minimal inhibitory concentration (MIC)
[3] = tested on: Staph.aureus A 2000; assay: agar serial dilution test; format: cell-based, Staphylococcus aureus; settings: Staphylococcus aureus, A2000, 24 h, agar serial dilution, 24 hours, 37° C.; read-out: minimal inhibitory concentration (MIC)
[4] = tested on: Staph.aureus A 2001; assay: agar serial dilution test; format: cell-based, Staphylococcus aureus; settings: Staphylococcus aureus, A2001, 24 h, agar serial dilution, 24 hours, 37° C.; read-out: minimal inhibitory concentration (MIC)
[5] = tested on: Strep. faec. L 80; assay: agar serial dilution test; format: cell-based, Streptococcus faecalis; settings: Enterococcus faecalis; agar serial dilution, 24 hours, 37° C.; read-out: minimal inhibitory concentration (MIC)
[6] = tested on: Dipl.pneum. L 54; assay: agar serial dilution test; format: cell-based, Diplococcus pneumoniae; settings: Streptococcus pneumoniae; agar serial dilution, 24 hours, 37° C.; read-out: minimal inhibitory concentration (MIC)
[7] = tested on: Past.multo. A 723; assay: agar serial dilution test; format: cell-based, Pasteurella multocida; settings: Pasteurella multocida; agar serial dilution, 24 hours, 37° C.; read-out: minimal inhibitory concentration (MIC)
[8] = tested on: Kleb.pneum. A 809; assay: agar serial dilution test; format: cell-based, Klebsiella pneumoniae; settings: Klebsiella pneumoniae; agar serial dilution, 24 hours, 37° C.; read-out: minimal inhibitory concentration (MIC)
[9] = tested on: Salm.dubl. P 43; assay: agar serial dilution test; format: cell-based, Salmonella dublin; settings: Salmonella enterica; agar serial dilution, 24 hours, 37° C.; read-out: minimal inhibitory concentration (MIC)
[10] = tested on: Esch.coli U 20; assay: agar serial dilution test; format: cell-based, Escherichia coli; settings: Escherichia coli, U20; agar serial dilution, 24 hours, 37° C.; read-out: minimal inhibitory concentration (MIC)
[11] = tested on: Pseud.aerug. H 10; assay: agar serial dilution test; format: cell-based; settings: agar serial dilution, 24 hours, 37° C.; read-out: minimal inhibitory concentration (MIC)
[12] = tested on: Pseud.aerug. 2396; assay: agar serial dilution test; format: cell-based; settings: agar serial dilution, 24 hours, 37° C.; read-out: minimal inhibitory concentration (MIC)
[13] = tested on: Pseud.aerug. Wyeth A 1058; assay: agar serial dilution test; format: cell-based; settings: agar serial dilution, 24 hours, 37° C.; read-out: minimal inhibitory concentration (MIC)
[14] = tested on: Prot.rettg. A 821; assay: agar serial dilution test; format: cell-based, Proteus rettgeri; settings: Providencia rettgeri, 24 h, read-out: minimal inhibitory concentration (MIC)
[15] = tested on: Prot.mirab. H 3; assay: agar serial dilution test; format: cell-based, Proteus mirabilis; settings: Proteus mirabilis
[16] = tested on: Prot.mirab. L 93; assay: agar serial dilution test; format: cell-based, Proteus mirabilis; settings: Proteus mirabilis; agar serial dilution, 24 hours, 37° C.; read-out: minimal inhibitory concentration (MIC)
[17] = tested on: Prot.mirab. A 1200; assay: agar serial dilution test; format: cell-based, Proteus mirabilis; settings: Proteus mirabilis, 24 h, agar serial dilution, 24 hours, 37° C.; read-out: minimal inhibitory concentration (MIC)
[18] = tested on: Prot.morg. 2241; assay: agar serial dilution test; format: cell-based; settings: 24 h, agar serial dilution, 24 hours, 37° C.; read-out: minimal inhibitory concentration (MIC)
[19] = tested on: Strep.haem A 1088; assay: agar serial dilution test; format: cell-based, Streptococcus haemolyticus; settings: Streptococcus, A1088, 24 hours, 37° C., read-out: minimal inhibitory concentration (MIC)
[20] = tested on: Sarc. lutea ATCC 9341; assay: agar serial dilution test; format: cell-based; settings: Micrococcus luteus, ATCC9341, 24 hours, 37° C., read-out: minimal inhibitory concentration (MIC)
[21] = tested on: Bruc. Suis A 2126; assay: agar serial dilution test; format: cell-based; settings: Brucella suis, 24 h, read-out: minimal inhibitory concentration (MIC)
[22] = tested on: Salm.typh. R 172; assay: agar serial dilution test; format: cell-based; settings: 24 h, read-out: minimal inhibitory concentration (MIC)
[23] = tested on: Actinob.equ. T 3; assay: agar serial dilution test; format: cell-based; settings: 24 hours, 37° C., read-out: minimal inhibitory concentration (MIC)
[24] = tested on: Staph.aureus A 355; assay: micro serial dilution test; format: cell-based, Staphylococcus aureus; settings: Staphylococcus aureus, A355; micro serial dilution (in brackets), about 18 hours, 30° C. or 37° C.; penicillinase-producing strain; read-out: minimal inhibitory concentration (MIC)
[25] = tested on: Staph.aureus A 2000; assay: micro serial dilution test; format: cell-based, Staphylococcus aureus; settings: Staphylococcus aureus, A2000, 18 h, micro serial dilution (in brackets), about 18 hours, 30° C. or 37° C.; read-out: minimal inhibitory concentration (MIC)
[26] = tested on: Staph.aureus A 2001; assay: micro serial dilution test; format: cell-based, Staphylococcus aureus; settings: Staphylococcus aureus, A2001, 18 h, micro serial dilution (in brackets), about 18 hours, 30° C. or 37° C.; read-out: minimal inhibitory concentration (MIC)
[27] = tested on: Prot.mirab. A 1200; assay: micro serial dilution test; format: cell-based; settings: Proteus mirabilis; micro serial dilution (in brackets), about 18 hours, 30° C. or 37° C.; read-out: minimal inhibitory concentration (MIC)
[28] = tested on: Staph.aureus A 355; assay: agar serial dilution test; settings: Staphylococcus aureus, A355, 24 h, read-out: minimal inhibitory concentration (MIC), agar serial dilution, 24 hours, 37° C.; penicillinase-producing strain
[29] = tested on: Strep.haem. A 266; assay: agar serial dilution test; format: cell-based, Streptococcus haemolyticus; settings: Streptococcus; agar serial dilution, 24 hours, 37° C.; read-out: minimal inhibitory concentration (MIC)
[30] = tested on: Bruc.melit. A 488; assay: microbe, parasite or virus in culture; format: cell-based; settings: Brucella melitensis, 24 h, read-out: minimal inhibitory concentration (MIC)
[31] = tested on: Shig.equir. T 3; assay: agar serial dilution test; format: cell-based; settings: 24 h, 37° C., read-out: minimal inhibitory concentration (MIC)
[32] = tested on: Kleb.pneum. A 809; assay: micro serial dilution test; format: cell-based; settings: Klebsiella pneumoniae; micro serial dilution (in brackets), about 18 hours, 30° C. or 37° C.; read-out: minimal inhibitory concentration (MIC)
[33] = tested on: Salm.typh. R 127; assay: micro serial dilution test; format: cell-based; settings: micro serial dilution (in brackets), about 18 hours, 30° C. or 37° C.; read-out: minimal inhibitory concentration (MIC)
Excerpt: Two drops of a stock solution of the test compound (antibiotic) in a known concentration were brought into the first hole of a test plate with 9 numbered holes with a sterile Pasteur pipette. After rinsing this pipette three times with a physiological NaCl-solution, two drops of a stock solution of the test organism in a culture medium were brought in all the holes except for hole 8. In the first hole, the solution of the tested compound had been half diluted, then by stirring the liquid in the first hole and adding two drops of this mixture to the second hole and so on until hole 8, dilutions of the test compound solution were obtained in geometrical progression. The hole 9 contained no antibiotic and served for checking the growth of the testogranism in a blank medium. The test plate was incubated at 30° C. or 37° C. for about 18 hours.

[34] = acute toxicity in mice; settings: mouse, in vivo, ip; mice (Swiss), one intraperitoneal administration
Method: (a) For sodium 7-[(3-methyl-1,2,4-oxadiazol-5-yl)-acetamido]-cephalosporanate (as prepared in Example 10), the acute toxicity was determined in mice (Swiss) with one intraperitoneal administration. The LD50 appeared to be >6000 mg/kg (Cephalotin-LD50 >6000 mg/kg).

[35] = tested on: Staph. aureus pen.resistant; assay: protection test; format: in vivo; settings: Staphylococcus aureus, sc
[36] = tested on: Proteus rettgeri; assay: protection test; format: in vivo; settings: Providencia rettgeri, sc
[37] = tested on: Klebsiella pneumoniae; assay: protection test; format: in vivo; settings: ip
[38] = tested on: Escherichia coli; assay: protection test; format: in vivo; settings: ip
[39] = tested on: penicillin resistant Staphylococcus aureus strain; assay: protection test; format: in vivo; settings: sc
Excerpt: The compound may preferably be used parenterally.

SMILES | MIC [1] [µg/mL] | MIC [2] [µg/mL] | MIC [3] [µg/mL] | MIC [5] [µg/mL] | MIC [6] [µg/mL] | MIC [7] [µg/mL] | MIC [8] [µg/mL] | MIC [9] [µg/mL] | MIC [10] [µg/mL] | MIC [11] [µg/mL] | MIC [12] [µg/mL] | MIC [13] [µg/mL] | MIC [16] [µg/mL] | MIC [18] [µg/mL] | MIC [28] [µg/mL] | further results
Cc1nc(CC(=O)N[C@@H]2C(=O)N3C(C(=O)O)=C(CSc4nnnn4C)CS[C@H]23)no1 [41 B, 7-[5-methyl-1,2,4-oxadiazol-3-yl-acetamido]-3-[1-methyl-tetrazol-5-yl-mercaptomethyl]-3-cephem-4-carboxylic acid] | 0.5 (≈ 1.11 µM) | 0.25 (≈ 0.553 µM) | 1 (≈ 2.21 µM) | > 100 | 1.5 (≈ 3.32 µM) | 1.5 (≈ 3.32 µM) | 1 (≈ 2.21 µM) | 1.5 (≈ 3.32 µM) | 1.5 (≈ 3.32 µM) | 100 (≈ 221 µM) | 100 (≈ 221 µM) | 100 (≈ 221 µM) | 12.5 (≈ 27.6 µM) | 100 (≈ 221 µM) | 1 (≈ 2.21 µM) | MIC [4]: 0.5 µg/mL (≈ 1.11 µM); MIC ([14]; agar serial dilution, 24 hours, 37° C.): 0.5 µg/mL (≈ 1.11 µM); MIC ([15]; agar serial dilution, 24 hours, 37° C., read-out: minimal inhibitory concentration (MIC)): 12.5 µg/mL (≈ 27.6 µM); MIC [17]: 25 µg/mL (≈ 55.3 µM); MIC [19]: 0.5 µg/mL (≈ 1.11 µM); MIC [20]: 0.5 µg/mL (≈ 1.11 µM); MIC [21]: 1 µg/mL (≈ 2.21 µM); MIC [22]: 1.5 µg/mL (≈ 3.32 µM); MIC [23]: 0.5 µg/mL (≈ 1.11 µM); MIC [24]: 0.9 µg/mL (≈ 1.99 µM); MIC [25]: 0.6 µg/mL (≈ 1.33 µM); MIC [26]: 0.6 µg/mL (≈ 1.33 µM); MIC [27]: 5 µg/mL (≈ 11.1 µM)
CC(=O)OCC1=C(C(=O)O)N2C(=O)[C@@H](NC(=O)Cc3cccs3)[C@H]2SC1 [Cephalotin, reference compound] | 0.12 (≈ 0.303 µM) | 0.5 (≈ 1.26 µM) | 0.5 (≈ 1.26 µM) | 25 (≈ 63.1 µM) | 0.5 (≈ 1.26 µM) | 0.7 (≈ 1.77 µM) | 0.7 (≈ 1.77 µM) | 1.5 (≈ 3.78 µM) | 3 (≈ 7.57 µM) | > 100 | > 100 | > 100 | 0.6 (≈ 1.51 µM) | > 100 | 0.5 (≈ 1.26 µM) | MIC [29]: 0.06 µg/mL (≈ 0.151 µM); MIC [30]: 6 µg/mL (≈ 15.1 µM); MIC [31]: 1.5 µg/mL (≈ 3.78 µM); MIC [14]: 12.5 µg/mL (≈ 31.5 µM); MIC ([15]; 24 h, read-out: minimal inhibitory concentration (MIC), agar serial dilution, 24 hours, 37° C.): 12.5 µg/mL (≈ 31.5 µM); MIC [32]: 0.37 µg/mL (≈ 0.933 µM); MIC [33]: 3 µg/mL (≈ 7.57 µM); LD50 [34]: > 6000 mg/kg; ED50 [35]: 37.6 mg/kg; ED50 [36]: 4.34 mg/kg; ED50 [37]: 0.8 mg/kg; ED50 [38]: > 300 mg/kg; ED50 [39]: 1.3 mg/kg
